Test results published in PubChem BioAssay (NCI).
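Briefly, cells in 96-well plates were exposed to five compound concentrations for 48 h, and endpoints were estimated by linear interpolation. GI50 is the concentration that inhibits growth by half. TGI marks complete inhibition of growth.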

What was measured:
Test in all cases: growth of human tumour cells (NCI), 48 h
786-0 renal = tested on: 786-0 renal
A498 renal = tested on: A498 renal
A549 NSCLC = tested on: A549 NSCLC
ACHN renal = tested on: ACHN renal
BT-549 breast = tested on: BT-549 breast
CAKI-1 renal = tested on: CAKI-1 renal
CCRF-CEM leukemia = tested on: CCRF-CEM leukemia
COLO 205 colon = tested on: COLO 205 colon
DU-145 prostate = tested on: DU-145 prostate
EKVX NSCLC = tested on: EKVX NSCLC
HCC-2998 colon = tested on: HCC-2998 colon
HCT-116 colon = tested on: HCT-116 colon
HCT-15 colon = tested on: HCT-15 colon
HL-60(TB) leukemia = tested on: HL-60(TB) leukemia
HOP-62 NSCLC = tested on: HOP-62 NSCLC
HOP-92 NSCLC = tested on: HOP-92 NSCLC
HS 578T breast = tested on: HS 578T breast
HT29 colon = tested on: HT29 colon
IGROV1 ovarian = tested on: IGROV1 ovarian
K-562 leukemia = tested on: K-562 leukemia
KM12 colon = tested on: KM12 colon
LOX IMVI melanoma = tested on: LOX IMVI melanoma
M14 melanoma = tested on: M14 melanoma
MALME-3M melanoma = tested on: MALME-3M melanoma
MCF7 breast = tested on: MCF7 breast
MDA-MB-435 = tested on: MDA-MB-435
MDA-MB-468 breast = tested on: MDA-MB-468 breast
MOLT-4 leukemia = tested on: MOLT-4 leukemia
NCI-H226 lung = tested on: NCI-H226 lung
NCI-H23 lung = tested on: NCI-H23 lung
NCI-H460 lung = tested on: NCI-H460 lung
NCI-H522 lung = tested on: NCI-H522 lung
NCI/ADR-RES ovarian = tested on: NCI/ADR-RES ovarian
OVCAR-3 ovarian = tested on: OVCAR-3 ovarian
OVCAR-4 ovarian = tested on: OVCAR-4 ovarian
OVCAR-5 ovarian = tested on: OVCAR-5 ovarian
OVCAR-8 ovarian = tested on: OVCAR-8 ovarian
PC-3 prostate = tested on: PC-3 prostate
RPMI-8226 leukemia = tested on: RPMI-8226 leukemia
RXF 393 renal = tested on: RXF 393 renal
SF-268 CNS = tested on: SF-268 CNS
SF-295 CNS = tested on: SF-295 CNS
SF-539 CNS = tested on: SF-539 CNS
SK-MEL-28 melanoma = tested on: SK-MEL-28 melanoma
SK-MEL-5 melanoma = tested on: SK-MEL-5 melanoma
SK-OV-3 ovarian = tested on: SK-OV-3 ovarian
SN12C renal = tested on: SN12C renal
SNB-19 CNS = tested on: SNB-19 CNS
SR leukemia = tested on: SR leukemia
SW-620 colon = tested on: SW-620 colon
T-47D breast = tested on: T-47D breast
TK-10 renal = tested on: TK-10 renal
U251 CNS = tested on: U251 CNS
UACC-257 melanoma = tested on: UACC-257 melanoma
UACC-62 melanoma = tested on: UACC-62 melanoma

## Cc1ccc(Cl)cc1NC(=O)Nc1nc2ccc([N+](=O)[O-])cc2s1
786-0 renal
  GI50: 2.73 µM
  TGI: 10 µM
A498 renal
  GI50: 2.38 µM
  TGI: 6.29 µM
A549 NSCLC
  GI50: 2.94 µM
  TGI: 10.1 µM
ACHN renal
  GI50: 3.09 µM
  TGI: 10.6 µM
BT-549 breast
  GI50: 2.35 µM
  TGI: 7.92 µM
CAKI-1 renal
  GI50: 3.18 µM
  TGI: 11.7 µM
CCRF-CEM leukemia
  GI50: 3.02 µM
  TGI: 12.5 µM
COLO 205 colon
  GI50: 1.85 µM
  TGI: 3.58 µM
DU-145 prostate
  GI50: 3.68 µM
  TGI: 14.1 µM
EKVX NSCLC
  GI50: 2.79 µM
  TGI: 10.1 µM
HCC-2998 colon
  GI50: 3.43 µM
  TGI: 10.9 µM
HCT-116 colon
  GI50: 2.81 µM
  TGI: 11 µM
HCT-15 colon
  GI50: 2.93 µM
  TGI: 11.3 µM
HL-60(TB) leukemia
  GI50: 1.88 µM
  TGI: 4.7 µM
HOP-62 NSCLC
  GI50: 3.47 µM
  TGI: 11.2 µM
HOP-92 NSCLC
  GI50: 2.29 µM
  TGI: 6.42 µM
HS 578T breast
  GI50: 2.75 µM
  TGI: 9.4 µM
HT29 colon
  GI50: 3.28 µM
  TGI: 10.5 µM
IGROV1 ovarian
  GI50: 3.92 µM
  TGI: 14.3 µM
K-562 leukemia
  GI50: 2.5 µM
  TGI: 10.2 µM
KM12 colon
  GI50: 3.1 µM
  TGI: 10.3 µM
LOX IMVI melanoma
  GI50: 3.28 µM
  TGI: 12.1 µM
M14 melanoma
  GI50: 2.87 µM
  TGI: 10.8 µM
MALME-3M melanoma
  GI50: 2.17 µM
  TGI: 6.39 µM
MCF7 breast
  GI50: 2.71 µM
  TGI: 8.92 µM
MDA-MB-435
  GI50: 3.33 µM
  TGI: 12.2 µM
MDA-MB-468 breast
  GI50: 2.24 µM
  TGI: 6.6 µM
MOLT-4 leukemia
  GI50: 2.3 µM
  TGI: 6.76 µM
NCI-H226 lung
  GI50: 3.34 µM
  TGI: 12 µM
NCI-H23 lung
  GI50: 2.27 µM
  TGI: 6.58 µM
NCI-H460 lung
  GI50: 2.69 µM
  TGI: 10.2 µM
NCI-H522 lung
  GI50: 2.08 µM
  TGI: 7.17 µM
NCI/ADR-RES ovarian
  GI50: 2.54 µM
  TGI: 9.04 µM
OVCAR-3 ovarian
  GI50: 3.25 µM
  TGI: 11.6 µM
OVCAR-4 ovarian
  GI50: 3.36 µM
  TGI: 14.2 µM
OVCAR-5 ovarian
  GI50: 3.33 µM
  TGI: 11.9 µM
OVCAR-8 ovarian
  GI50: 3.07 µM
  TGI: 11.7 µM
PC-3 prostate
  GI50: 2.97 µM
  TGI: 11.3 µM
RPMI-8226 leukemia
  GI50: 1.85 µM
  TGI: 5.58 µM
RXF 393 renal
  GI50: 2.54 µM
  TGI: 9.73 µM
SF-268 CNS
  GI50: 3.48 µM
  TGI: 13.8 µM
SF-295 CNS
  GI50: 2.24 µM
  TGI: 6.59 µM
SF-539 CNS
  GI50: 2.6 µM
  TGI: 6.9 µM
SK-MEL-28 melanoma
  GI50: 3.42 µM
  TGI: 12.3 µM
SK-MEL-5 melanoma
  GI50: 1.84 µM
  TGI: 3.6 µM
SK-OV-3 ovarian
  GI50: 2.19 µM
  TGI: 6.52 µM
SN12C renal
  GI50: 2.86 µM
  TGI: 9.7 µM
SNB-19 CNS
  GI50: 3.43 µM
  TGI: 12.7 µM
SR leukemia
  GI50: 2.05 µM
  TGI: 5.63 µM
SW-620 colon
  GI50: 3.06 µM
  TGI: 12.4 µM
T-47D breast
  GI50: 2.31 µM
  TGI: 7.87 µM
TK-10 renal
  GI50: 3.49 µM
  TGI: 13 µM
U251 CNS
  GI50: 3.06 µM
  TGI: 10.7 µM
UACC-257 melanoma
  GI50: 2.21 µM
  TGI: 6.63 µM
UACC-62 melanoma
  GI50: 2.86 µM
  TGI: 11.5 µM
